Like-named read-outs stand apart in the source and are kept apart here.
Columns and labels:
[1] = tested on: HCV RNA replication (HCV type 1b replicon in Huh-7 luc/neo cells); experiment: HCV replicon assay (Huh-Luc, luciferase read-out); assay type: cell-based; conditions: Hepatitis C virus, Huh-7, 72 h, HCV replicon test, three days incubation
Description: The EC50 ratio between the active ingredients of formula I, II and III in the combinations of the invention may vary. As used herein the term “EC50 ratio” refers to the ratio of the EC50 value of the compound of formula I to the EC50 value of the compound of formula II, and to the EC50 value of the compound of formula III, said EC50 values being obtained in the HCV replicon test. The latter in particular is the test method described hereinafter.
The in vitro antiviral activity against HCV of the compound of formula I or of formula II or of formula III can be tested in a cellular HCV replicon system based on Lohmann et al. (1999) Science 285:110-113, with the further modifications described by Krieger et al. (2001) Journal of Virology 75: 4614-4624 (incorporated herein by reference), which is further exemplified in the examples section. […]
The replicon cells were plated in 384 well plates in the presence of the test and control compounds which were added in various concentrations. Following an incubation of three days, HCV replication was measured by assaying luciferase activity (using standard luciferase assay substrates and reagents, and a Perkin Elmer ViewLux™ ultraHTS microplate imager). […] The inhibitory activity of the compound was monitored on the Huh-Luc cells, enabling a dose-response curve for each test compound. […]

[2] = tested on: HCV RNA replication (HCV type 1b replicon in Huh-7 luc/neo cells); conditions: HCV replicon test; reported in WO2010/003658; cited from earlier work

COc1ccc2c(O[C@@H]3C[C@H]4C(=O)N[C@]5(C(=O)NS(=O)(=O)C6CC6)C[C@H]5C=CCCCCN(C)C(=O)[C@@H]4C3)cc(-c3nc(C(C)C)cs3)nc2c1C (stereo in doubt) [compound I, (1R,4R,6S,15R,17R)-cis-N-[17-[2-(4-isopropylthiazole-2-yl)-7-methoxy-8-methyl-quinolin-4-yloxy]-13-methyl-2,14-dioxo-3,13-diazatricyclo[13.3.0.0^4,6]octadec-7-ene-4-carbonyl](cyclopropyl)sulfonamide]
EC50 [1]: 0.008 µM

C[C@@H]1[C@H](n2ccc(N)nc2=O)O[C@@](CO)(N=[N+]=[N-])[C@H]1O [compound II, 4-amino-1-((2R,3S,4S,5R)-5-azido-4-hydroxy-5-hydroxymethyl-3-methyl-tetrahydrofuran-2-yl)-1H-pyrimidin-2-one]
EC50 [1]: 5 µM

COc1ccc2c(c1)C=C1Cn3c-2c(C2CCCCC2)c2ccc(cc23)C(=O)NS(=O)(=O)N(C)CCOCCN(C)C1=O [compound III]
EC50 [2]: 0.07 µM

— patent US20130028865A1, “Combination of a Macrocyclic Inhibitor of HCV, A Non-Nucleoside and a Nucleoside” (MEDIVIR AB, priority 2010, published 2013)
